Test results published in US20030229132A1, “Small molecule modulators of apoptosis” (priority 2002, published 2003).

B1: Fas Ligand: induces apoptosis which proceeds through the caspase-8 pathway (protein, UniProt P48023 130-281, looked up)
Tumor necrosis factor ligand …: QIGHPSPPPEKKELRKVAHLTGKSNSRSMPLEWEDTYGIVLLSGVKYKKGGLVINETGLYFVYSKVYFRGQSCNNLPLSHKVYMRNSKYPQDLVMMEGKMMSYCTTGQMWARSSYLGAVFNLTSADHLYVNVSELSLVNFEESQTFFGLYKL

How the values were obtained:
[1] = tested on: Jurkat cells; assay: DNA fragmentation analysis in Jurkat cells; assay type: cell-based, human; settings: 50 μM compound or 1 μM staurosporin, 8 hr
[2] = tested on: peripheral blood lymphocytes (PBL); assay: Cell viability, PBL; assay type: cell-based, human; settings: normal cell
Description: (§1) Samples were then probed by immunoblot for (A) caspase-3 activation or (B) cleavage of PARP. (C) DNA fragmentation analysis. […] The DNA was isolated by phenol/chloroform extraction, separated on a 2% agarose gel and visualized by ethidium bromide staining. Cell viability assay.
(§2) Normal cell lines include peripheral blood lymphocytes (PBL) isolated from donated human blood, non-transformed mammary fibroblasts (MCF-10A), human mammary epithelial cells (HMEC), human umbilical vein endothelial cells (HUVEC), and human prostate epithelial cells (PREC). Transformed cell lines include cell lines from leukemia, breast, lung, ovarian, and epidermal cancers (Table 1).

[3] = tested on: CCRF-CEM; assay: Cell viability, CCRF-CEM; assay type: cell-based, human; settings: leukemia
Description: as §1, §2

[4] = tested on: Jurkat cells; assay: Caspase-3 activation in Jurkat cells (immunoblot); assay type: cell-based, human; settings: 50 μM compound or 1 μM staurosporin, 6 hr
Protocol: (§3) (C) DNA fragmentation analysis. […] Cell viability assay.
(§4) Compounds were then tested for their ability to induce apoptosis in live cells. The ability of the compounds to activate caspase-3 in a Jurkat cell line was first assayed. […] This same pattern was seen when we assayed for the cleavage of poly (ADP-ribose) polymerase (PARP), a cellular substrate of caspases-3 and -7 (see, D. W. Nicholson, Cell Death Differ 6, 1028-42 (1999)). Upon apoptosis, PAR-P is cleaved from a 116 kD to an 85 kD protein.

[5] = tested on: NCI-H23; assay: Cell viability, NCI-H23; assay type: cell-based, human; settings: NCI-H23, lung
[6] = tested on: Jurkat cells; assay: PARP cleavage in Jurkat cells (immunoblot); assay type: cell-based, human; settings: 50 μM compound or 1 μM staurosporin, 6 hr
Protocol: as §3, §4

[7] = tested on: Normal (PBL) and cancer (Jurkat, Molt-4, CCRF-CEM) lymphocyte cell lines; assay: Cell viability, normal and cancer lymphocyte cell lines compared; settings: all four lymphocyte cell lines, normal and cancerous
Description: as §1, §2

[8] = tested on: caspase-3 (DEVDase activity); assay: DEVDase fluorescence screen in HeLa cell S-100 cytoplasmic extracts; assay type: biochemical; settings: in vitro fluorescence assay, HeLa S-100 extracts with cyto c
Description: In order to identify compounds that modulate apoptosis, a chemical genetics approach was utilized to screen for molecules that target components of the apoptosis pathway (see, T. U. Mayer et al., Science 286, 971-4 (1999)). An in vitro screen using cytoplasmic extracts was adapted for apoptosis to a 96-well format and used to test an in-house library of ˜3500 compounds (see, T. Fernandes-Alnemri et al, Proc Natl Acad Sci USA 93, 7464-9 (1996); X. Liu, C. N. Kim, J. Yang, R. Jemmerson, X. Wang, Cell 86, 147-57 (1996); L. M. Leoni et al., Proc Natl Acad Sci USA 95, 9567-71 (1998)). Briefly, individual compounds were added to HeLa cell S-100 cytoplasmic extracts at a final concentration of 1 mM and apoptosis was induced by adding bovine heart cyto c (HeLa cell cytoplasmic extracts were prepared according to previously published reports (see, P. Li et al., Cell 91, 479-89 (1997)). Compounds were distributed into 96-well microtiter plates at a final concentration of 1 mM. To each well was added 250 μg of total protein from cytoplasmic extracts in HEB buffer (50 mM Hepes pH 7.4, 50 mM KCl, 5 mM EGTA, 2 mM MgCl), with 2 mM DTT, 2 μM cyto c, and 0.5 μM DEVD-AFC substrate in a total of 150 μL. Plates were incubated at 37° C. and fluorescence was read in a LJL Biosystems plate reader at 10 min intervals). Activation of caspase-3 was monitored by cleavage of a fluorogenic substrate, Asp-Glu-Val-Asp-7-amino-4-trifluoromethylcoumarin (DEVDase activity). As designed, the DEVDase fluorescence screen encompasses the release of cyto c from the mitochondria to the activation of caspase-3. Possible targets include cyto c, Apaf-1, caspase-9, caspase-3, inhibitors of apoptosis (IAPs), and possible unidentified components present in the cytosol.

[9] = tested on: procaspase-3 processing; assay: Procaspase-3 processing by capture ELISA in HeLa cell extract (cyto c / compound titration); assay type: biochemical; settings: cyto c titrated into HeLa cell extract, no compound; read-out: concentration for half-maximal activation (AC50) of procaspase-3 processing
Protocol: FIG. 2 depicts activity of compounds 1-5 in cell lysates. (A) Compound activation is cyto c dependent. Cyto c was titrated into S-100 cytoplasmic extracts with vehicle alone or 20 μM compound and procaspase-3 processing was assayed by capture ELISA. (B) Compound activation is dose-dependent. Compounds or vehicle were titrated into S-100 cytoplasmic extracts at a cyto c concentration of 1.25 μM and procaspases-3 processing was assayed by capture ELISA. (C) Immunoblot assay of compound-induced caspase activation. Samples at the 20 μM compound concentration in (B) were separated on SDS-polyacrylamide gel and transferred to polyvinyl membrane. […]
In order to determine if these compounds required cyto c for caspase-3 activation, cyto c was titrated into HeLa cell extract in the presence and absence of compounds and procaspase-3 processing was monitored by capture ELISA (Cyto c was titrated into lysates as detailed in the screening procedure. Capture ELISA assay for active caspase-3 was adapted from Aragones et al., www.biocarta.com. Briefly, a mouse monoclonal antibody recognizing both full-length and cleaved caspase-3 (capture antibody, Transduction Laboratories) was immobilized onto an immunosorp plate and blocked with 5% milk, and 25 μL of the caspase activation reaction in 75 μL Superblock (Pierce) was added. […]

[10] = tested on: Jurkat cells transfected with Apaf-1 siRNA; assay: Viability of Jurkat cells transfected with Apaf-1 siRNA (MTT test); assay type: cell-based, human; settings: 20 nM Apaf-1 siRNA 48 hr, then 24 hr incubation
Protocol: (A) Jurkat cells were transfected with 20 nM Apaf-1 siRNA for 48 hr and half the cells were lysed and probed with antibodies to Apaf-1, caspase-9, and caspase-3. The other half of the cells was incubated with varying concentrations of (B), compound 2 or (C), Fas ligand for 24 hr and assayed for viability by MTT test. (D) SK-OV-3 cells were transiently transfected with Apaf-1 or vector control for 24 hr and then incubated with vary concentrations of compound 2 and assayed for viability. (E) Cyto c was titrated into SK-OV-3 cell lysate in the presence of 300 μM dATP, with or without 150 nM purified Apaf-1 and 20 μM compound 2 as indicated.
In order to verify that compound 2 targets the apoptosome as a function of its cytotoxic activity, small interfering RNA (siRNA) was used to silence the expression of Apaf-1 in Jurkat cells. Sense and anti-sense oligonucleotides corresponding to nucleotides 978-998 of Apaf-1 (([…]) as reported by Lassus et al. Science 297, 1352-4. (2002)), were purchased from Dharmacon. Transfection of siRNA into Jurkat cells was accomplished using GeneSilencer (Gene Therapy Systems) according to manufacturer's instructions. There was a significant decrease in the level of expression of Apaf-1 48 hr after transfection of an Apaf-1 specific siRNA, without affecting the expression of caspases in the pathway (FIG. 5A).

| Molecule | DNA fragmentation [1] | processing of procaspase-3 [4] | cleavage of PARP [6] | activation of DEVDase activity [8] | other results |
| --- | --- | --- | --- | --- | --- |
| CN[C@@H]1C[C@H]2O[C@@](C)([C@@H]1OC)n1c3ccccc3c3c4c(c5c6ccccc6n2c5c31)C(=O)NC4 [Staurosporin, reference compound] | “laddering” effect | significant processing | complete cleavage |  | IC50 [2]: 69 nM; IC50 [3]: 69 nM; IC50 [5]: 85 nM; susceptibility to cytotoxicity [7]: equally susceptible |
| O=C1Cc2ccccc2N1Cc1ccc(Cl)c(Cl)c1 [Compound 3] | induced DNA fragmentation | significant processing | limited processing | strongly activated DEVDase activity |  |
| CCOC(=O)NCc1ccc(Cl)c(Cl)c1 [Compound 1] | less pronounced effect | no processing |  | most active |  |
| cyto c: bovine heart cyto c added to cytoplasmic extracts to induce apoptosis |  |  |  |  | AC50 [9]: ~1750 nM |
| B1 |  |  |  |  | cell killing after silencing of Apaf-1 [10]: still sensitive |
